*1 amine or outer side, *2 acyl side, *3 side chain or, on linkers, in order; H or OH if unused. Where a SMILES comes first, the peptide text is derived from it. Bridges are numbered along the chain shown (N, C = ends). [ ]: non-standard residue; d: D form. The star is where a group is joined. X1 = O=C1C[C@@H](C(=O)[*:2])N([*:1])C[C@H]1CS[C@@H]1CN2CCC1CC2; NMePhe(4-NMe2) = CN[C@@H](Cc1ccc(N(C)C)cc1)C(=O)O; Picolinoyl(3-OH) = O=C(c1ncccc1O)*; Phg = N[C@H](C(=O)O)c1ccccc1; dAbu = CC[C@@H](N)C(=O)O
Tests used:
[1] = Highest frequency of moderate liver toxicity observed during clinical trials, expressed as a percentage. [column '% BIOL' in source]; conditions: human
[2] = Highest frequency of acute liver toxicity observed during clinical trials, expressed as a percentage. [column '% AIGUE' in source]; conditions: human
[3] = human, serum
[4] = human, serum; remark: listed apart in the source
[5] = human
[6] = human; remark: listed apart in the source
[7] = human; remark: listed apart in the source
[8] = human, serum, 4383 h
[9] = human; remark: listed apart in the source
[10] = human; remark: listed apart in the source
[11] = human; remark: listed apart in the source
[12] = human; remark: listed apart in the source
[13] = human; remark: listed apart in the source
[14] = human; remark: listed apart in the source
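For Hepatotoxicity (association with vascular disease) in this document: count of indexed literature references reporting vascular liver injury in humans, e.g. peliosis hepatitis, hepatic veno-occlusive disease or Budd-Chiari syndrome.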
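For Hepatotoxicity (benign tumour) in this document: value is a count of indexed literature references citing a benign tumour confirmed by histopathology.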
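For Hepatotoxicity (choleostasis) in this document: human cholestatic liver injury, shown by histopathology or by peak ALT or AST elevation over alkaline phosphatase ratio below 2, value counts indexed literature reports.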
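For Hepatotoxicity (chronic liver disease) in this document: chronic liver injury confirmed by histopathology or persistently raised serum aminotransferase activity beyond 6 months, value given as the count of indexed literature references.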
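For Hepatotoxicity (cirrhosis) in this document: value is a count of indexed literature references reporting cirrhosis confirmed by histopathology.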
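For Hepatotoxicity (cytolytic) in this document: human cytolytic liver injury, shown by histopathology or by a ratio above 5 of peak ALT or AST elevation to alkaline phosphatase elevation, value counts indexed references.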
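For Hepatotoxicity (granulomatous hepatitis) in this document: value is a count of indexed literature references reporting granulomatous liver disease confirmed by histopathology.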
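For Hepatotoxicity (malignant tumour) in this document: malignant tumour confirmed by histopathology, value gives the count of indexed literature references reporting it.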
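For Hepatotoxicity (severe hepatitis) in this document: human clinical data: severe hepatitis, meaning potentially life-threatening liver failure or clinically observed cases, the value counts how many indexed literature references report it.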
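For Hepatotoxicity (steatosis) in this document: steatosis confirmed by histopathology, value is the count of indexed references.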

| Compound | Hepatotoxicity (moderate) [1] [%] | Hepatotoxicity (acute) [2] [%] | Hepatotoxicity (moderate) [3] | Hepatotoxicity (acute) [4] | Hepatotoxicity (cytolytic) [5] | Hepatotoxicity (choleostasis) [6] | Hepatotoxicity (severe hepatitis) [7] | Hepatotoxicity (chronic liver disease) [8] | Hepatotoxicity (cirrhosis) [9] | Hepatotoxicity (granulomatous hepatitis) [10] | Hepatotoxicity (association with vascular disease) [11] | Hepatotoxicity (steatosis) [12] | Hepatotoxicity (malignant tumour) [13] | Hepatotoxicity (benign tumour) [14] | Hepatotoxicity (moderate) ([1]; Liver) [%] | Hepatotoxicity (acute) ([2]; Liver) [%] | Hepatotoxicity (severe hepatitis) ([7]; Liver) |
| --- | --- | --- | --- | --- | --- | --- | --- | --- | --- | --- | --- | --- | --- | --- | --- | --- | --- |
| CCN(CC)CC(=O)Oc1ccc(NC(C)=O)cc1 [PROPACETAMOL] | 2.1 | 0 | 1 | 0 | 0 | 0 | 0 | 0 | 0 | 0 | 0 | 0 | 0 | 0 |  |  |  |
| Cc1ccc2c(-c3ccccc3)nc(=O)n(C(C)C)c2c1 [PROQUAZONE] | 1.8 | 0 | 1 | 0 | 0 | 0 | 0 | 0 | 0 | 0 | 0 | 0 | 0 | 0 |  |  |  |
| COCCCN1CCC(NC(=O)c2cc(Cl)c(N)c3c2OCC3)CC1 [PRUCALOPRIDE] | 5.9 | 0 | 1 | 0 | 0 | 0 | 0 | 0 | 0 | 0 | 0 | 0 | 0 | 0 |  |  |  |
| Cc1oc(=O)oc1CN1CCN(c2cc3c(cc2F)c(=O)c(C(=O)O)c2n3C(C)S2)CC1 (stereo unspecified) [PRULIFLOXACIN] | 33.3 | 0 | 25 | 0 | 0 | 0 | 0 | 0 | 0 | 0 | 0 | 0 | 0 | 0 |  |  |  |
| COC(=O)c1nc2cc(Cl)c3cccnc3c2o1 [QUAZOLAST] | 13 | 0 | 1 | 0 | 0 | 0 | 0 | 0 | 0 | 0 | 0 | 0 | 0 | 0 |  |  |  |
| CCN(CC)CCS(=O)(=O)[C@@H]1CCN2C(=O)c3coc(n3)CC(=O)C[C@H](O)/C=C(C)/C=C/CNC(=O)/C=C/[C@@H](C)[C@@H](C(C)C)OC(=O)[C@@H]12.CC[C@H]1NC(=O)[C@@H](NC(=O)c2ncccc2O)[C@@H](C)OC(=O)[C@H](c2ccccc2)NC(=O)[C@@H]2CC(=O)[C@H](CS[C@@H]3CN4CCC3CC4)CN2C(=O)[C@H](Cc2ccc(N(C)C)cc2)N(C)C(=O)[C@@H]2CCCN2C1=O [QUINUPRISTIN/DALFOPRISTIN] ({Picolinoyl(3-OH)}-T[dAbu]P[NMePhe(4-NMe2)][X1][Phg]; ester 1-C) | 7.1 | 0 | 8 | 0 | 0 | 0 | 0 | 0 | 0 | 0 | 0 | 0 | 0 | 0 |  |  |  |
| CC(Cc1ccccc1)(NC(=O)CN)c1ccccc1 (stereo unspecified) [REMACEMIDE] | 0.9 | 0 | 3 | 0 | 0 | 0 | 0 | 0 | 0 | 0 | 0 | 0 | 0 | 0 |  |  |  |
| CCN1CCC[C@H]1CNC(=O)c1c(OC)ccc(Br)c1OC [REMOXIPRIDE] | 6.4 | 0 | 7 | 0 | 0 | 0 | 0 | 0 | 0 | 0 | 0 | 0 | 0 | 0 |  |  |  |
| CCOc1cc(CC(=O)N[C@@H](CC(C)C)c2ccccc2N2CCCCC2)ccc1C(=O)O [REPAGLINIDE] |  |  | 1 | 0 | 0 | 0 |  | 0 | 0 | 0 | 0 | 0 | 0 | 0 | 1.5 | 0 | 0 |
| CO[C@@H](/C(C)=C/C=C/C(C)=C/c1coc(C)n1)[C@@H](C)[C@@H]1C[C@H](O)[C@@]2(C)O[C@@H]2/C=C/[C@@H](C)[C@H]2C[C@H](CC(=O)O2)C[C@@H]2O[C@H]2C(=O)O1 [RHIZOXIN] | 7.3 | 0 | 1 | 0 | 0 | 0 | 0 | 0 | 0 | 0 | 0 | 0 | 0 | 0 |  |  |  |
| CO[C@H]1/C=C/O[C@@]2(C)Oc3c(C)c(O)c4c(O)c(c5c(nc6cc(C)ccn65)c4c3C2=O)NC(=O)/C(C)=C\C=C\[C@H](C)[C@H](O)[C@@H](C)[C@@H](O)[C@@H](C)[C@H](OC(C)=O)[C@@H]1C [RIFAXIMIN] | 26.7 | 0 | 27 | 0 | 0 | 0 | 0 | 0 | 0 | 0 | 0 | 0 | 0 | 0 |  |  |  |
| CC(N)C12CC3CC(CC(C3)C1)C2 (stereo unspecified) [RIMANTADINE] | 1.8 | 0 | 1 | 0 | 0 | 0 | 0 | 0 | 0 | 0 | 0 | 0 | 0 | 0 |  |  |  |
| CCCCC(C)(O)C/C=C/[C@H]1[C@H](O)CC(=O)[C@@H]1CCCCCCCO (stereo partly specified) [RIOPROSTIL] | 10 | 0 | 1 | 0 | 0 | 0 | 0 | 0 | 0 | 0 | 0 | 0 | 0 | 0 |  |  |  |
| CCCC(=O)O[C@H]1[C@H](C)O[C@@H](O[C@H]2[C@H](N(C)C)[C@@H](O)[C@H](O[C@H]3[C@@H](CC=O)C[C@@H](C)[C@@H](O)/C=C/C=C/C[C@@H](C)OC(=O)C[C@@H](O)[C@@H]3OC)O[C@@H]2C)C[C@@]1(C)OC(=O)CC [ROKITAMYCIN] | 5 | 0 | 4 | 0 | 0 | 0 | 0 | 0 | 0 | 0 | 0 | 0 | 0 | 0 |  |  |  |

Source: ChEMBL document CHEMBL3137667, “[Drug-induced liver injury; fourteenth updated edition of the bibliographic database of liver injuries and related drugs]” (Gastroenterol Clin Biol, 2004)
